We go through 1 compound from publication PMC9605737, “Identification of 6ω-cyclohexyl-2-(phenylamino carbonylmethylthio)pyrimidin-4(3H)-ones targeting the ZIKV NS5 RNA dependent RNA polymerase” (Frontiers in Chemistry, 2022).

For orientation: EC50 means the concentration at which the effect is half-maximal. By CC50 is commonly meant the concentration that lowers cell viability or growth by half. Read a low CC50 as greater toxicity to the cells.

Each structure is given as a SMILES string.

One data set relates to ZIKV NS5 protein. The data set can be described thus: Western blot of ZIKV NS5 protein in infected Vero cells. In kind it is cell-based. To be noted: 12.5 μM, 48 h. From the text:
(§1) ZIKV E protein is one of the most important structural proteins of ZIKV, which plays an important role in the correct assembly of the virus and evasion of the host’s innate immunity ([Jaimipuk et al., 2022]). We have verified that 4w has a significant inhibitory effect on ZIKV-infected cell lines from different sources at the molecular level, but it is unknown whether it has the same antiviral effect at the protein level. Therefore, in order to explore the inhibitory effect of 4w on ZIKV protein level, we added serially diluted 4w to ZIKV-infected Vero cells for 48 h, collected the total protein for WB experiments, and then detected the effect of 4w on ZIKV E and NS5 protein. At the same time, the inhibitory effect of 4w on ZIKV E protein was verified again by immunofluorescence experiment.
(§2) Vero cells were infected with ZIKV (MOI = 1) at 37°C for 2 h. Next, the different amounts of 4w were added to continue culturing for 48 h to extract the total protein in the cells. The total protein was separated in sodium dodecyl sulfate polyacrylamide gel electrophoresis (SDS-PAGE). […] The antibody signal was recorded and quantified using the Tanon-5200 Multi Imaging System.
Background: A western blot detects proteins with antibodies after separation by electrophoresis.

The test system of another data set is ZIKV RNA. The data set can be described thus: qRT-PCR viral load in supernatant of ZIKV-infected Vero cells. In kind it is cell-based. The following applies: Zika virus, read-out: EC50, inhibition of ZIKV RNA replication. From the text:
In order to re-verify the inhibitory effect of 4w on ZIKV at the molecular level, we used ZIKV to infect cell lines of different origins (A549, Vero, Huh7 cells) and then treated with 4w in a concentration gradient. The change of viral load in the supernatant of cells after treatment was detected by qRT-PCR method.
Cells were infected with ZIKV SZ-WIV01 and then treated with 4w. The viral load in the supernatant was detected by Quantitative real-time polymerase chain reaction (qRT-PCR) at in different time periods after infection. Then the RNA from culture supernatant was extracted using the EasyPure ® Viral DNA/RNA Kit (TransGen Biotech, China) following the manufacturer’s instructions. Intracellular RNA extraction was according to trizol method. A one-step qRT-PCR kit RNA-direct™ Realtime PCR Master Mix (TOYOBO, Japan) and TaqMan probe were used to quantify the viral RNA produced. The primers (NS5 ZIKV 1086F: 5′-CCGCTGCCCAACACAAG-3′ and NS5 ZIKV 1086R: 3′-[…] C-5′) and probe (5′-FAM-[…]-TAMRA -3′) were used for amplification of the ZIKV NS5 region. A standard curve of the serial dilutions was used to quantify the viral RNA yield.
The 50% effective concentration (EC50) and 50% cytotoxic concentration (CC50) of the compound were calculated according to the Reed and Muench method, inhibition rate of ZIKV RNA yield- [(1-drug treatment/positive control) × 100]. […]
(In general: In qPCR the cycle at which signal appears reflects the starting amount.)

For data set [1], the system named is ZIKV. The data set can be described thus: Plaque assay, anti-ZIKV activity in Vero cells. In kind it is cell-based, Zika virus.
Description: Initially, the novel acetylarylamine-S-DACOs 4a-z were tested for their cytotoxicity and anti-ZIKV activity in Vero cells by plaque formation according to previously detailed procedure ([Xu et al., 2017]).
Vero cells were inoculated in a 12-well plate at 3 × 10^5 cells/ml and cultured overnight, the medium was discarded and cells were washed with PBS, then the ZIKV (MOI = 0.5) was added to infect at 37°C for 2 h. The cells were washed with PBS, and then a mixture of DMEM supplemented with 4% FBS and 2% low-melting agarose (Amresco, United States) was overlaid on the cells. Next, the cells were fixed with 4% paraformaldehyde for 15 min at 5d post-infection (hpi), washed twice with PBS and stained with 0.8% crystal violet for 10 min. Finally, an enzyme-linked fluorescence spot spectrometer (CTL, United States) was used for image acquisition.
Data set [2] deals with ZIKV. Description: Time of drug withdrawal experiment. The following applies: 50 μM, drug withdrawal 4–6 h after dosing, viral load after 24 h. In kind it is cell-based, Zika virus. As to the method:
ZIKV RdRp was a important domain in the C-terminal of ZIKV NS5, and plays a crucial role in the replication and synthesis of RNA in the life cycle of ZIKV. In order to further verify that 4w activity is related to RdRp domain inhibition, we examined the effect of 4w on the replication cycle of ZIKV using four different drug treatments and time-sharing withdrawal experiments (Figure 7A).
The virus was added to the cells and adsorbed for 2 h at 4°C, then the unabsorbed virus was washed away with pre-cooled PBS, and 50 μM 4w was added at the same time. Withdraw the drug at 1, 2, 4, 6, 8, and 12 h after dosing. The cell supernatant was collected for viral load detection after the maintenance medium continued to culture for 24 h.

Data set [3] in a line: MTT cytotoxicity assay in Vero cells. In kind it is cell-based, African green monkey. To be noted: African green monkey, triplicate, >200 = highest soluble concentration not reaching 50% cytotoxicity. The method, then: (§3) MTT assay was used to detect the toxicity of the compound. Cells were seeded in 96-well plates and cultured overnight. Compounds with different concentrations were added and incubated for 96 h. Then, 20 μl of 5 mg/ml MTT (Sigma-Aldrich, United States) solution was added to each well and kept at 37°C for 4 h. Subsequently, 100 μl of 12% SDS-50% DMF (Sigma-Aldrich, United States) solution was added and incubated overnight at 37°C. After the crystalline formamidine was completely dissolved, the optical density (OD) value was measured using a microplate reader (BioTek, United States) with a wavelength of 570 nm and a reference wavelength of 630 nm.
(§4) The 50% effective concentration (EC50) and 50% cytotoxic concentration (CC50) of the compound were calculated according to the Reed and Muench method, inhibition rate of ZIKV RNA yield- [(1-drug treatment/positive control) × 100]. The data and graphs were processed using GraphPad Prism8 software, expressed as mean ± standard deviation (Mean ± SD), comparison between groups using ANOVA, p < 0.05 was considered statistically significant.
Background: Formazan colour is commonly taken as a measure of viable cells.

The target of a further data set is T1, ZIKV RdRp (Zika virus, UniProt A0A024B7W1).
T1 construct: we expressed and purified ZIKV RdRp domain; made in house; host or cells: Escherichia coli BL21 (DE3)
T1 sequence (A0A024B7W1 2793-3423): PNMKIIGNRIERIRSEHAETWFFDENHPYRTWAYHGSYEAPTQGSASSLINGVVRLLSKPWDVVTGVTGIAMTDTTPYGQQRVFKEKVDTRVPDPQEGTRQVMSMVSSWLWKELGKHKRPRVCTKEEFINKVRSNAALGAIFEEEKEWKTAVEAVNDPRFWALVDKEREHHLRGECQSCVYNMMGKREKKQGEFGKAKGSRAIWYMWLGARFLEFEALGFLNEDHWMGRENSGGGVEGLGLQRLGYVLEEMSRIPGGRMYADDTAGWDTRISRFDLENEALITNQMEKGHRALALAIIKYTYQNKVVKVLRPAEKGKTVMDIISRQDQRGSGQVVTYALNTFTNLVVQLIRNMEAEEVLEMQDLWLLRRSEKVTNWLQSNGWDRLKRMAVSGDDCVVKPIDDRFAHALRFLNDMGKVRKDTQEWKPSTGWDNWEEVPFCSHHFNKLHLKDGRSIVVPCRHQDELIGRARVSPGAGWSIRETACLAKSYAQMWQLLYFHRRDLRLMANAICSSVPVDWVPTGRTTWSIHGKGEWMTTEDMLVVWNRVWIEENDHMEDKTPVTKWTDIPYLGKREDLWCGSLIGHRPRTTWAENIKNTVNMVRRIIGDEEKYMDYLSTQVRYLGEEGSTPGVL
The data set can be described thus: In vitro ZIKV RdRp activity assay (Syto9 fluorescence). In kind it is biochemical. To be noted: purified ZIKV RdRp domain, poly-U/ATP, 30°C 60 min; read-out: EC50, inhibition of ZIKV RdRp activity. From the text:
Through molecular docking experiments and cell thermal shift analysis, we supose that 4w may have a direct interaction with ZIKV RdRp. In order to verify whether the binding of 4w and NS5 protein is directly related to ZIKV RdRp, we expressed and purified ZIKV RdRp domain, and detected its activity according to the method described in the literature ([Qian et al., 2022]) (Figure 6A). […] Heparin is a protein chelating agent. […] Heparin was selected as the positive control drug in this experiment, and the syto9-only group was used as the negative control, the same volume of DMSO as a positive control.
The ZIKV RdRp was expressed and purified, and the protein expression and purification method was as described before ([Xu et al., 2017]; [Sáez-Álvarez et al., 2019]). 4w was diluted with protein dialysis buffer to 1,500 nM and stored for later use. In vitro RdRp polymerase activity assay was described previously ([Qian et al., 2022]), 1,500 ng of purified RdRp protein, gradient diluted 4w and positive control drug 5 μM, 2 mg/ml Poly-U, 20mM ATP, 1M Tris-HCl, 100 mg/ml BSA, 100mM MnCl2 was added to a 96-well PCR plate. After mixing, the reaction was performed at 30°C in the dark for 60 min. […] RdRp protein activity was detected on a real-time fluorescence quantitative PCR instrument.

Data set [4] can be described thus: MTT cytotoxicity assay in A549 cells. In kind it is cell-based. The following applies: human. The method, then: as §3, §4
For another data set, the system named is ZIKV E protein. The data set can be described thus: Western blot of ZIKV E protein in infected Vero cells. In kind it is cell-based, Zika virus. To be noted: 12.5 μM, 48 h.
Description: as §1, §2

Regarding `CCc1c(C2CCCCC2)nc(SCC(=O)Nc2cc(F)cc(F)c2)[nH]c1=O` [Compound 4w, 2-{[4-cyclohexyl-5-ethyl-6-oxo-1,6-dihydropyrimidin-2-yl]thio}-N-(3,5-difluorophenyl)acetamide], the “inhibition of ZIKV NS5 protein expression (WB)” value with ZIKV NS5 protein was “significantly inhibit”. Also, the EC50 turned out to be 6.87 ± 1.21 µM in the data set on ZIKV RNA; 7.65 ± 0.31 µM with ZIKV [1] (Zika virus, plaque assay, independently in triplicate, read-out: EC50 (anti-ZIKV activity, plaque formation)); 11.4 ± 0.51 µM on ZIKV RdRp. The “SI (selectivity index, CC50/EC50 ratio)” value in the data set on ZIKV [1] is on record as over 26. Besides, the “effect of drug withdrawal on release of progeny virus” value in the data set on ZIKV [2] is on record as “significantly inhibit the release of progeny virus”. In addition, the CC50 at 96 h in data set [3] and in data set [4] was over 200 µM each time. The “inhibition of ZIKV E protein expression (WB)” value in the data set with ZIKV E protein is recorded as “significantly inhibit”.
